Reference: ChEMBL document CHEMBL3352585, “2013 Philip S. Portoghese Medicinal Chemistry Lectureship: drug discovery targeting allosteric sites” (J Med Chem, 2014)
Blank lines part the entries; values can stand above or below the compound they belong to.

How the values were obtained:
[1] = Inhibition of PKA (unknown origin); set-up: species or system Homo sapiens
[2] = biological target: Protein kinase C (PKC); experiment: Inhibition of PKC (unknown origin); set-up: species or system Homo sapiens
[3] = biological target: T1, Serine/threonine-protein kinase Sgk1 (Homo sapiens, UniProt O00141); experiment: Inhibition of SGK (unknown origin)
T1 sequence (O00141 whole entry): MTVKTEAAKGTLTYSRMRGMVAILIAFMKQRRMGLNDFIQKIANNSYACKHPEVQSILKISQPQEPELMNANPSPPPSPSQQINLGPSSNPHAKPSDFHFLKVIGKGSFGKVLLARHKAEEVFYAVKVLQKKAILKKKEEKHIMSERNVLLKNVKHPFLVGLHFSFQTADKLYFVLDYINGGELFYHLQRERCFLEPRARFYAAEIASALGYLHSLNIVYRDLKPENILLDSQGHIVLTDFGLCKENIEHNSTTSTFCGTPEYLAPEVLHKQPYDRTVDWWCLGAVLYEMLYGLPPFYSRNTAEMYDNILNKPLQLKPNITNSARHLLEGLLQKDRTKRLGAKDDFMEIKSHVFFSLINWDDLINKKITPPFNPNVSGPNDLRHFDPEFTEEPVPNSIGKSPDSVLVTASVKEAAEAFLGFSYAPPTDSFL

[4] = biological target: T2, Muscarinic acetylcholine receptor M5 (Homo sapiens, UniProt P08912); experiment: Negative allosteric modulator activity at human muscarinic acetylcholine receptor M5 expressed in CHO cells by fluorometric imaging plate reader; assay type: cell-based
T2 sequence (P08912 whole entry): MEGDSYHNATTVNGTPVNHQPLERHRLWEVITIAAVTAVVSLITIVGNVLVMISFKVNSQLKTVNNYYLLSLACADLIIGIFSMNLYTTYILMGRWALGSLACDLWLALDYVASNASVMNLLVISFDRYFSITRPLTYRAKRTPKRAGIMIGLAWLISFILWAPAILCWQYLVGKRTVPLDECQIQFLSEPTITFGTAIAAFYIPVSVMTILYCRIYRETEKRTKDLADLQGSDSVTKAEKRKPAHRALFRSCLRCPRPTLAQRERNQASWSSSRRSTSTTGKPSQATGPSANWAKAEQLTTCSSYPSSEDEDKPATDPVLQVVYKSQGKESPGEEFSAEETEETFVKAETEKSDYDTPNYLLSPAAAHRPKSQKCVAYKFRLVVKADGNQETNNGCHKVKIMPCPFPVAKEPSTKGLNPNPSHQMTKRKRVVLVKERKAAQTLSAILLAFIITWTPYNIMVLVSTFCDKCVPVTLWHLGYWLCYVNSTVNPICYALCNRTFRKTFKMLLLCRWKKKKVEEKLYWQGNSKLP

[5] = biological target: T2, Muscarinic acetylcholine receptor M5; experiment: Silent allosteric modulator activity at human muscarinic acetylcholine receptor M5 expressed in CHO cells by fluorometric imaging plate reader; assay type: cell-based
[6] = biological target: T2, Muscarinic acetylcholine receptor M5; experiment: Positive allosteric modulator activity at human muscarinic acetylcholine receptor M5 expressed in CHO cells by fluorometric imaging plate reader; assay type: cell-based
[7] = biological target: T2, Muscarinic acetylcholine receptor M5; experiment: Allosteric agonist activity at human muscarinic acetylcholine receptor M5

Compound: CC(C)(N)c1ccc(-c2nc3ccccc3nc2-c2ccccc2)cc1
IC50 [1]: > 250 µM
IC50 [2]: > 250 µM
IC50 [3]: > 250 µM

Compound: O=C(N[C@H]1C[C@@H](O)C1)c1ccc(C#Cc2cccc(F)c2)cn1
EC50 [6]: 33 nM

Compound: O=C(N[C@H]1C[C@H](O)C1)c1ccc(C#Cc2cccc(F)c2)cn1
EC50 [7]: 400 nM

The next lines start with the values.

EC50 [4]: 3 µM
Compound: COc1cccc(/C=N/N=C/c2cccc(OC)c2)c1

EC50 [5]: 7.6 µM
Compound: Clc1cccc(/C=N/N=C/c2cccc(Cl)c2)c1

EC50 [6]: 2600 nM
Compound: Fc1cccc(/C=N/N=C/c2cccc(F)c2)c1
